# In patent US6713623B2, “Tetraphosphonate bicyclic trisanhydrides” (Pharmasset, Ltd., priority 1996, dated 2004):
# Legend:
# human IMPDH type II = human IMPDH type II (Homo sapiens, UniProt P12268); assay: inhibitory activity against human IMPDH type II; assay type: biochemical; settings: 100 μM NAD, 50 μM IMP, 25 nM enzyme, pH 8.0; read-out: Ki, inhibitor of IMPDH type II
# [1] = system: K562 erythroleucemic cells; assay: anti-proliferative activity against K562 cells; assay type: cell-based; settings: Homo sapiens, read-out: IC50, growth of K562 cells
# Experimental: The compounds of structure 1 are stable in plasma at room temperature for at least several days. It is assayed for both inhibitory activity against human IMPDH type II and for anti-proliferative activity against K562 erythroleucemic cells. […] The ability to induce differentiation in K562 cells is also estimated by determining the fraction of benzidine positive cells converted following incubation with β-methylene-MAD.
# glucuronosyltransferases = assay: glucuronidation by glucuronosyltransferases in vitro; assay type: in vitro ADME; settings: parallel experiments
# IMPDH type I = IMPDH type I (Homo sapiens, UniProt P20839); settings: Carr et al.; read-out: Ki, IMPDH type I expressed in normal cells; cited from earlier work
# Sequence of IMPDH type I (P20839 whole entry): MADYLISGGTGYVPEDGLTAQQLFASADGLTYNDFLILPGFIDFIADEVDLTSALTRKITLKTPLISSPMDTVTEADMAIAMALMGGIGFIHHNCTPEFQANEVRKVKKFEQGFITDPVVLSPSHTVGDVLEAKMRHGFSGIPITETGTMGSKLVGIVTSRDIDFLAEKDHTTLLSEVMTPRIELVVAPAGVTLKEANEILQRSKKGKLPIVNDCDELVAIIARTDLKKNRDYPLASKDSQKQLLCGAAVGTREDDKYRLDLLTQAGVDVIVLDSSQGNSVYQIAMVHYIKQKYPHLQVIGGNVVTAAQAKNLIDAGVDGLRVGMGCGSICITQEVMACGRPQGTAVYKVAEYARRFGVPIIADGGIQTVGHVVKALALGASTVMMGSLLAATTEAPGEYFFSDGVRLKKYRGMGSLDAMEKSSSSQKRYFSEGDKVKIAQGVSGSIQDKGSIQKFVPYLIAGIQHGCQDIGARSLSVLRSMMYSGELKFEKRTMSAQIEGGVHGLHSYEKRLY
# tumors = settings: quick conversion into the inactive β-glucuronide after administration; cited from earlier work
# B and T lymphocyte = settings: cited from earlier work
# [2] = system: inosine monophosphate dehydrogenase (IMPDH); settings: Marquez et al., J. Med. Chem. 1986; cited from earlier work
Ki (human IMPDH type II),IC50 [1],Compound,glucuronidation by various glucuronosyltransferases (glucuronosyltransferases),Ki (IMPDH type I),activity against tumors (tumors),B and T lymphocyte proliferation (B and T lymphocyte),inhibition of IMPDH [2]
300 nM,6000 nM,"COc1c(C)c2c(c(O)c1CC=C(C)CCCOP(=O)(O)CP(=O)(O)OCC1OC(n3cnc4c(N)ncnc43)C(O)C1O)C(=O)OC2 (stereo not drawn) [β-methylene-MAD, P^1-(adenosin-5-yl)-P^2-(mycophenol-5′-yl)methylenebis(phosphonate)]",completely resistant to glucuronidation,,,,
,,"COc1c(C)c2c(c(O)c1C/C=C(\C)CCC(=O)O)C(=O)OC2 [mycophenolic acid, Mycophenolic acid]",effectively glucuronidated,33 to 37 nM,inactive,blocks,
,,NC(=O)c1csc([C@@H]2O[C@H](COP(=O)(O)CP(=O)(O)OC[C@H]3O[C@@H](n4cnc5c(N)ncnc54)[C@H](O)[C@@H]3O)[C@@H](O)[C@H]2O)n1 [β-methylene TAD],,,,,potent inhibitor
